Data published in publication PMC7503370, “Cellular Signaling and Anti-Apoptotic Effects of Prolactin-Releasing Peptide and Its Analog on SH-SY5Y Cells” (International Journal of Molecular Sciences, 2020).
Numbered stars: 1 amine (or outer) side, 2 acyl side, 3 side chain; on linkers, the order of the positions; unused ones are H or OH. Side chains are listed from the residue outwards. Peptide text beside a SMILES is read from it. * marks the point of attachment. γGlu = O=C(O)[C@H](CCC(=O)[*:2])N[*:1]; Palmitoyl = CCCCCCCCCCCCCCCC(=O)*

Key:
Format in all cases: cell-based, human
SH-SY5Y cells = test: Treatment with peptides after 16 h exposure to MG, MTT cell viability; settings: 1.2 mM MG 16 h, then 4 h treatment 1 × 10^−5 M, n = 3, octuplicates
Protocol: Treatment for 4 h with PrRP31 and palm^11-PrRP31 at a concentration of: (a) 1 × 10^−5 M; after exposure to 1.2 mM MG for 16 h in SH-SY5Y cells. Treatment for 4 h with PrRP31 and palm^11-PrRP31 at a concentration of: (b) 1 × 10^−5 M; (c) 1 × 10^−7 M, after exposure to 0.6 mM MG for 16 h in SH-SY5Y cells. MG toxicity measured with MTT assay. Data are presented as the means ± SEM as a percentage of control cells treated with vehicle analyzed by a Student´s t-test vs. 0.6 mM MG ## p < 0.01, ### p < 0.001, #### p < 0.0001 (n = 3, each sample in octuplicates). Control vs. 0.6 mM MG analyzed by a Student´s t-test, * p < 0.5, ** p < 0.01.
The MTT test was used to measure cell viability. The MTT reagent was dissolved in RPMI-1640 without phenol red. Cells were incubated for 2 h with a 10% solution of MTT at 37 °C. Living cells converted soluble MTT to insoluble formazan, which was subsequently dissolved in DMSO. The absorbance was measured at a wavelength of 560 nm.
For this assay, cells were cultured in 96-well plates at a density of 40,000 cells per well. The growth medium was exchanged for serum-free DMEM 16 h before the experiment. First, the cells were pretreated with 1 × 10^−5 M or 1 × 10^−7 M PrRP31 or palm^11-PrRP31 (in octuplicates) for 4 h to prevent MG cytotoxic effects; then, MG was added to a final concentration of 0.6 mM or 1.2 mM. The cells were incubated at 37 °C for 16 h. […]

[1] = tested on: p-c-Jun, p-ERK, p-Bad, Bax/Bcl-2 in SH-SY5Y cells; test: Western blotting of anti-apoptotic signaling in MG-stressed cells; settings: 4 h pretreatment 1 × 10^−5 M, then 0.6 mM MG 16 h, vs MG, triplicates; for decrease of the MG-increased level of p-Bad (Ser112)/Bad / decrease of the MG-increased level of p-Bad (Ser136)/Bad / decrease of the MG-increased level of p-c-Jun (Ser73)/c-Jun: normalized to GAPDH
Protocol: (§1) Figure 7 PrRP31 and palm^11-PrRP31 affected anti-apoptotic signaling in SH-SY5Y cells. Immunoblots: (a) and their quantifications: (b). SH-SY5Y cells were pretreated with PrRP31 and palm^11-PrRP31 at a concentration of 1 × 10^−5 M for 4 h and then stressed with 0.6 mM MG for 16 h. Activation was expressed as the ratio of the activated protein to the total amount of the protein, both normalized to loading control, GAPDH. Data are presented as the means ± SEM as a percentage of control cells treated with medium alone. Analysis is made vs. MG by a Student’s t-test, * p < 0.5, ** p < 0.01 (each sample in triplicates).
(§2) For the investigation of the molecular mechanism of PrRP31 and its analog in the cells, signaling pathways were studied by Western blotting (WB). The cells were cultured in 6-well plates at a density of 800,000 cells per well. Growth medium was exchanged for serum-free DMEM 16 h before an experiment, and then, the cells were incubated with PrRP31, palm^11-PrRP31, or scrambled peptide at a final concentration of 1 × 10^−5 M or insulin at a concentration of 1 × 10^−7 M at 37 °C for 8 min. The cells were rapidly cooled on ice and lysed in 400 µl of Laemmli sample buffer (62.5 mM Tris-HCl with pH 6.8, 2% SDS, 10% glycerol, 0.01% bromophenol blue, 5% mercaptoethanol, 50 mM NaF, and 1 mM Na3VO4) and stored at −20 °C. Afterward, the cell lysates were analyzed by WB. SDS-electrophoresis and WB were carried out using a Criterion system with a 26-well 4−15% Criterion^TM TGX^TM Precast Midi Protein Gel (Bio-Rad, Hercules, CA, USA) at a constant voltage of 200 V or 100 V, respectively.
(§3) Subsequently, the membranes were incubated overnight with primary antibody (Ab) at 4 °C, according to the manufacturer´s instructions (Table 2). The next day, the membranes were incubated with an HRP-linked secondary antibody for 1 h at room temperature. Chemiluminescence was visualized with a ChemiDoc^TM System (Bio-Rad). Band intensities were normalized using glyceraldehyde 3-phosphate dehydrogenase (GAPDH) as an internal loading control.
(§4) For analysis of the molecular mechanism during MG stress, the growth medium was exchanged for serum-free DMEM 16 h before the experiment. The cells were pretreated with 1 × 10^−5 M PrRP31 or palm^11-PrRP31 for 4 h; then, MG was added to a final concentration of 0.6 mM, and the cells were incubated at 37 °C for 16 h. The controls and compounds were tested in triplicate.

[2] = tested on: Tau protein phosphorylation in SH-SY5Y cells; test: Western blotting of Tau phosphorylation in MG-stressed cells; settings: 4 h pretreatment 1 × 10^−5 M, then 0.6 mM MG 16 h, vs MG; for attenuation of MG-increased Tau phosphorylation at Ser396: normalized to GAPDH
Protocol: as §1, with “8” for “7”, “attenuate Tau hyperphosphorylation at the epitope Ser396” for “affected anti-apoptotic signaling”, “SH-SY5Y. Immunoblots with:” for “SH-SY5Y cells. Immunoblots:”, “sample replicate” for “sample”, “triplicate).” for “triplicates).”
as §2, §3, §4

CC[C@H](C)[C@H](NC(=O)CNC(=O)[C@H](CCCNC(=N)N)NC(=O)[C@H](CO)NC(=O)[C@H](C)NC(=O)[C@H](Cc1ccc(O)cc1)NC(=O)[C@H](Cc1c[nH]c2ccccc12)NC(=O)[C@H](C)NC(=O)[C@@H]1CCCN1C(=O)[C@H](CC(N)=O)NC(=O)[C@@H](NC(=O)[C@H](CC(=O)O)NC(=O)[C@@H]1CCCN1C(=O)[C@@H](NC(=O)[C@H](CCCNC(=N)N)NC(=O)[C@@H](NC(=O)[C@H](CCC(=O)O)NC(=O)[C@H](CCSC)NC(=O)[C@H](CO)NC(=O)[C@H](Cc1c[nH]cn1)NC(=O)[C@H](CCCNC(=N)N)NC(=O)[C@H](Cc1c[nH]cn1)NC(=O)[C@@H](NC(=O)[C@H](CCCNC(=N)N)NC(=O)[C@@H](N)CO)[C@@H](C)O)[C@@H](C)CC)[C@@H](C)O)[C@@H](C)CC)C(=O)N[C@@H](CCCNC(=N)N)C(=O)N1CCC[C@H]1C(=O)N[C@H](C(=O)NCC(=O)N[C@@H](CCCNC(=N)N)C(=O)N[C@@H](Cc1ccccc1)C(N)=O)C(C)C [PrRP31] was tested, and the “change of cell viability compared to cells administered with 1.2 mM MG” value (SH-SY5Y cells) was “nonsignificant increase”, the “decrease of the MG-increased level of p-Bad (Ser112)/Bad” value [1] was “tended to decrease” and the “decrease of the MG-increased level of p-Bad (Ser136)/Bad” value [1] was “tended to decrease”. The “decrease of the MG-increased level of p-c-Jun (Ser73)/c-Jun” value [1] was “tended to decrease”, the “Tau phosphorylation at Ser198/199/202 (Tau 1)/Tau 5 induced by MG, effect of pretreatment” value [2] was “tended to decrease” and the “attenuation of MG-increased Tau phosphorylation at Ser396” value ([2]; triplicates) was 46%.
In the case of CCCCCCCCCCCCCCCC(=O)N[C@@H](CCC(=O)NCCCC[C@H](NC(=O)[C@@H](NC(=O)[C@H](CCC(=O)O)NC(=O)[C@H](CCSC)NC(=O)[C@H](CO)NC(=O)[C@H](Cc1c[nH]cn1)NC(=O)[C@H](CCCNC(=N)N)NC(=O)[C@H](Cc1c[nH]cn1)NC(=O)[C@@H](NC(=O)[C@H](CCCNC(=N)N)NC(=O)[C@@H](N)CO)[C@@H](C)O)[C@@H](C)CC)C(=O)N[C@H](C(=O)N1CCC[C@H]1C(=O)N[C@@H](CC(=O)O)C(=O)N[C@H](C(=O)N[C@@H](CC(N)=O)C(=O)N1CCC[C@H]1C(=O)N[C@@H](C)C(=O)N[C@@H](Cc1c[nH]c2ccccc12)C(=O)N[C@@H](Cc1ccc(O)cc1)C(=O)N[C@@H](C)C(=O)N[C@@H](CO)C(=O)N[C@@H](CCCNC(=N)N)C(=O)NCC(=O)N[C@H](C(=O)N[C@@H](CCCNC(=N)N)C(=O)N1CCC[C@H]1C(=O)N[C@H](C(=O)NCC(=O)N[C@@H](CCCNC(=N)N)C(=O)N[C@@H](Cc1ccccc1)C(N)=O)C(C)C)[C@@H](C)CC)[C@@H](C)CC)[C@@H](C)O)C(=O)O [palm^11-PrRP31] (H-SRTHRHSMEIK([γGlu-Palmitoyl])TPDINPAWYASRGIRPVGRF-NH2; N-terminus assumed), the “change of cell viability compared to cells administered with 1.2 mM MG” value (SH-SY5Y cells) is reported as “nonsignificant increase”, the “decrease of the MG-increased level of p-Bad (Ser112)/Bad” value [1] is reported as 46% and the “decrease of the MG-increased level of p-Bad (Ser136)/Bad” value [1] is reported as 52%. For the same compound, the “decrease of the MG-increased level of p-c-Jun (Ser73)/c-Jun” value [1] was 37%, the “attenuation of the MG-increased ratio of Bax/Bcl−2” value [1] was 38% and the “attenuation of MG-increased Tau phosphorylation at Ser396” value ([2]; triplicates) was 32%. The “increase in unphosphorylated Tau (Tau 1 antibody, Ser198/199/202)/Tau 5” value ([2]; triplicates) was 32%.
